We go through one compound from US20250262167A1, “COMPOUNDS, TARGETS AND PATHWAYS FOR MACROPHAGE MODULATION” (Massachusetts Institute of Technology, priority 2020, published 2025).

The test system of one assay is ImKCs. As to conditions: dose- and time-dependent.
Assay [1] relates to bone marrow derived macrophages (BMDMs). The assay can be described thus: Seahorse ECAR (glycolysis) in BMDMs. It is filed as cell-based, mouse. Conditions: Pkm−/− BMDMs, 50 nM. The method, then: FIGS. 21A-21I show DPI stimulates glycolysis through GPR3 and β-arrestin2. FIGS. 21A-21B show DPI-stimulated glycolysis is independent of the NOX activity. […] The mean fluorescence intensity (MFI) of 2-NBDG in cells was measured by flow cytometry and normalized to DMSO controls of wildtype BMDMs. Data are presented as the mean±sd (n=3). […] ImKCs were transfected with siRNA specific for Gpr3 or a scramble siRNA as control. […] Data are presented as the mean±sd (n=4). […] Data are presented as the mean±sd (n=12). […] Abbr2^−/− ImKC were constructed by CRISPR-Cas9-mediated gene editing. […] Data are presented as the mean±sd (n=4). […]
Specific parameters for glycolytic capacity and glycolytic reserve were calculated and summarized based on two independent experiments. […]
FIGS. 29A-29B show comparison of DPI's effect on glycolysis in wild-type and Pkm^−/− BMDMs. […] ImKCs were treated with DMSO or DPI alone (500 nM) or DPI plus ERK1/2 inhibitor (SCH772984, […]) for 6 hrs and the enzymatic activities of PKM2 (c) and GAPDH (d) were measured by colorimetric assay kits (Biovision). […]
OCR and ECAR were measured in isolated tissues or cultured ImKCs using the Seahorse XFe Extracellular Flux Analyzer (Agilent). […] Glucose levels were determined using a glucose (GO) assay kit (Sigma). […] Lactate levels were determined using a lactate assay kit (Eton Bioscience). […]

Description for ImKCs: Total protein lysates were isolated from either mouse ImKCs with or without DPI treatment for 6 and 12 hrs or human primary macrophages with or without DPI treatment for 12 hrs at the indicated concentrations. Equal amounts of total proteins from whole-cell lysates were subjected to Western blotting analysis. β-actin was used as a loading control. Shown are representative data of two independent experiments. […] P values were calculated by student t-test. * P<0.05, ** P<0.01. n.s. not significant.
Proteins were extracted from cells with RIPA buffer. Protein concentration was quantified by BCA Protein Assay Kit (Pierce Biotechnology). Samples containing 20 μg total protein were resolved on a 10% SDS-PAGE gel and electro-transferred onto a PVDF membrane (Millipore Corporation). The membrane was blocked in 5% (w/v) fat-free milk in PBST (PBS containing 0.1% Tween-20). […] The blot was washed twice in PBST and then incubated with anti-Rabbit HRP-conjugated secondary antibody (Cell Signaling Technology, 1:2000) in 5% fat-free milk. The membrane was washed twice in PBST and subjected to protein detection by ECL Plus Western Blotting Detection System (GE Healthcare) before being exposed to a Kodak BioMax XAR film.

For the compound `c1ccc2c(c1)[I+]c1ccccc1-2` [Diphenyleneiodonium chloride], the “HK, GAPDH, LDHA and enolase at the protein level” value in the assay with ImKCs is “upregulation”. Also, in assay [1], the “glycolysis, glycolytic capacity and glucose consumption” value is listed as “did not stimulate any increase”.
